Patent US10131652B2, “Pyrimidinyloxy benzene derivatives as herbicides” (E. I. DU PONT DE NEMOURS AND COMPANY, priority 2014, dated 2018)
Read-outs that look alike come from different tables or passages of the source.

How the values were obtained:
Assay in all cases: Test E pre-/postemergence plant response
Assay type in all cases: in vivo
[1] = tested on: windgrass (Apera spica-venti); conditions: scale 0 to 100, read-out: Plant response rating, Windgrass; for pest or weed control at 16 g/ha: 16 g ai/ha; for pest or weed control at 62 g/ha: 62 g ai/ha; for pest or weed control at 125 g/ha: 125 g ai/ha
Summary of the method: (§1)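 Pre-emergence: seeds sown in silt loam soil and sprayed with test chemicals in a non-phytotoxic solvent/surfactant mix. Post-emergence: plants at 2–18 cm (1- to 4-leaf stage) in peat/vermiculite medium treated with the same formulation. Visual rating versus controls after 7–21 days, 0 (no effect) to 100 (complete control).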

[2] = tested on: speedwell (bird's-eye speedwell, Veronica persica); conditions: scale 0 to 100, read-out: Plant response rating, Speedwell; for pest or weed control at 16 g/ha: 16 g ai/ha; for pest or weed control at 62 g/ha: 62 g ai/ha; for pest or weed control at 125 g/ha: 125 g ai/ha
Summary of the method: as §1

[3] = tested on: kochia (Kochia scoparia); conditions: Bassia scoparia, scale 0 to 100, read-out: Plant response rating, Kochia; for pest or weed control at 16 g/ha: 16 g ai/ha; for pest or weed control at 31 g/ha: 31 g ai/ha; for pest or weed control at 62 g/ha: 62 g ai/ha; for pest or weed control at 125 g/ha: 125 g ai/ha
Summary of the method: as §1

[4] = tested on: chamomile (scentless chamomile, Matricaria inodora); conditions: Tripleurospermum inodorum, post-emergence, Postemergence, scale 0 to 100, read-out: Plant response rating, Chamomile
Summary of the method: as §1

[5] = tested on: deadnettle (henbit deadnettle, Lamium amplexicaule); conditions: scale 0 to 100, read-out: Plant response rating, Deadnettle; for pest or weed control at 16 g/ha: 16 g ai/ha; for pest or weed control at 31 g/ha: 31 g ai/ha; for pest or weed control at 62 g/ha: 62 g ai/ha; for pest or weed control at 125 g/ha: 125 g ai/ha
Summary of the method: as §1

[6] = tested on: wild radish (Raphanus raphanistrum); conditions: scale 0 to 100, read-out: Plant response rating, Radish, Wild; for pest or weed control at 16 g/ha: 16 g ai/ha; for pest or weed control at 31 g/ha: 31 g ai/ha; for pest or weed control at 62 g/ha: 62 g ai/ha; for pest or weed control at 125 g/ha: 125 g ai/ha
Summary of the method: as §1

[7] = tested on: wild buckwheat (Polygonum convolvulus); conditions: Fallopia convolvulus, scale 0 to 100, read-out: Plant response rating, Buckwheat, Wild; for pest or weed control at 16 g/ha: 16 g ai/ha; for pest or weed control at 31 g/ha: 31 g ai/ha; for pest or weed control at 62 g/ha: 62 g ai/ha; for pest or weed control at 125 g/ha: 125 g ai/ha
Summary of the method: as §1

[8] = tested on: wild mustard (Sinapis arvensis); conditions: Brassica, scale 0 to 100, read-out: Plant response rating, Mustard, Wild; for pest or weed control at 16 g/ha: 16 g ai/ha; for pest or weed control at 31 g/ha: 31 g ai/ha; for pest or weed control at 62 g/ha: 62 g ai/ha; for pest or weed control at 125 g/ha: 125 g ai/ha
Summary of the method: as §1

[9] = tested on: downy bromegrass (Bromus tectorum); conditions: scale 0 to 100, read-out: Plant response rating, Bromegrass, Downy; for pest or weed control at 16 g/ha: 16 g ai/ha; for pest or weed control at 31 g/ha: 31 g ai/ha; for pest or weed control at 62 g/ha: 62 g ai/ha; for pest or weed control at 125 g/ha: 125 g ai/ha
Summary of the method: as §1

[10] = tested on: wild oat (Avena fatua); conditions: scale 0 to 100, read-out: Plant response rating, Oat, Wild; for pest or weed control at 16 g/ha: 16 g ai/ha; for pest or weed control at 31 g/ha: 31 g ai/ha; for pest or weed control at 62 g/ha: 62 g ai/ha; for pest or weed control at 125 g/ha: 125 g ai/ha
Summary of the method: as §1

[11] = tested on: field poppy (Papaver rhoeas); conditions: scale 0 to 100, read-out: Plant response rating, Field Poppy; for pest or weed control at 16 g/ha: 16 g ai/ha; for pest or weed control at 31 g/ha: 31 g ai/ha; for pest or weed control at 62 g/ha: 62 g ai/ha; for pest or weed control at 125 g/ha: 125 g ai/ha
Summary of the method: as §1

[12] = post-emergence, 31 g ai/ha, Postemergence

Fc1cccc(Oc2ncc(Cl)cn2)c1-c1cc(C(F)F)on1 [Compound 55, 5-chloro-2-[2-[5-(difluoromethyl)-3-isoxazolyl]-3-fluorophenoxy]pyrimidine]
45%: pest or weed control at 125 g/ha ([10]; pre-emergence, Preemergence)
15%: pest or weed control at 31 g/ha ([10]; post-emergence, Postemergence) | pest or weed control at 31 g/ha ([10]; pre-emergence, Preemergence)
55%: pest or weed control at 16 g/ha ([3]; pre-emergence, Preemergence) | pest or weed control at 62 g/ha ([9]; pre-emergence, Preemergence) | pest or weed control at 125 g/ha ([9]; pre-emergence, Preemergence)
20%: pest or weed control at 16 g/ha ([5]; post-emergence, Postemergence) | pest or weed control at 16 g/ha ([9]; pre-emergence, Preemergence) | pest or weed control at 31 g/ha ([9]; pre-emergence, Preemergence)
100%: pest or weed control at 62 g/ha ([1]; pre-emergence, Preemergence) | pest or weed control at 125 g/ha ([1]; pre-emergence, Preemergence) | pest or weed control at 62 g/ha ([2]; post-emergence, Postemergence) | pest or weed control at 125 g/ha ([2]; post-emergence, Postemergence) | pest or weed control at 16 g/ha ([2]; pre-emergence, Preemergence) | pest or weed control at 62 g/ha ([2]; pre-emergence, Preemergence) | pest or weed control at 125 g/ha ([2]; pre-emergence, Preemergence) | pest or weed control at 31 g/ha ([3]; pre-emergence, Preemergence) | pest or weed control at 62 g/ha ([3]; pre-emergence, Preemergence) | pest or weed control at 125 g/ha ([3]; pre-emergence, Preemergence) | pest or weed control at 31 g/ha ([6]; pre-emergence, Preemergence) | pest or weed control at 62 g/ha ([6]; pre-emergence, Preemergence) | pest or weed control at 125 g/ha ([6]; pre-emergence, Preemergence) | pest or weed control at 31 g/ha ([7]; pre-emergence, Preemergence) | pest or weed control at 62 g/ha ([7]; pre-emergence, Preemergence) | pest or weed control at 125 g/ha ([7]; pre-emergence, Preemergence) | pest or weed control at 31 g/ha ([8]; pre-emergence, Preemergence) | pest or weed control at 62 g/ha ([8]; pre-emergence, Preemergence) | pest or weed control at 125 g/ha ([8]; pre-emergence, Preemergence) | pest or weed control at 62 g/ha ([11]; post-emergence, Postemergence) | pest or weed control at 16 g/ha ([11]; pre-emergence, Preemergence) | pest or weed control at 31 g/ha ([11]; pre-emergence, Preemergence) | pest or weed control at 62 g/ha ([11]; pre-emergence, Preemergence) | pest or weed control at 125 g/ha ([11]; pre-emergence, Preemergence)
85%: pest or weed control at 62 g/ha ([3]; post-emergence, Postemergence) | pest or weed control at 125 g/ha ([3]; post-emergence, Postemergence) | pest or weed control at 31 g/ha ([8]; post-emergence, Postemergence) | pest or weed control at 16 g/ha ([11]; post-emergence, Postemergence)
75%: pest or weed control at 16 g/ha ([2]; post-emergence, Postemergence) | pest or weed control at 16 g/ha ([6]; post-emergence, Postemergence)
95%: pest or weed control at 31 g/ha ([7]; post-emergence, Postemergence) | pest or weed control at 62 g/ha ([7]; post-emergence, Postemergence) | pest or weed control at 125 g/ha ([7]; post-emergence, Postemergence) | pest or weed control at 62 g/ha ([8]; post-emergence, Postemergence) | pest or weed control at 125 g/ha ([8]; post-emergence, Postemergence) | pest or weed control at 125 g/ha ([11]; post-emergence, Postemergence)
5%: pest or weed control at 16 g/ha ([1]; post-emergence, Postemergence) | pest or weed control at 16 g/ha ([1]; pre-emergence, Preemergence) | pest or weed control at 16 g/ha ([4]; 16 g ai/ha) | pest or weed control at 31 g/ha ([4]; 31 g ai/ha) | pest or weed control at 62 g/ha ([4]; 62 g ai/ha) | pest or weed control at 125 g/ha ([4]; 125 g ai/ha) | pest or weed control at 16 g/ha ([9]; post-emergence, Postemergence)
90%: pest or weed control at 31 g/ha ([11]; post-emergence, Postemergence)
35%: pest or weed control at 62 g/ha ([10]; pre-emergence, Preemergence)
70%: pest or weed control at 31 g/ha ([3]; post-emergence, Postemergence) | pest or weed control at 62 g/ha ([5]; post-emergence, Postemergence) | pest or weed control at 31 g/ha ([6]; post-emergence, Postemergence) | pest or weed control at 16 g/ha ([6]; pre-emergence, Preemergence) | pest or weed control at 16 g/ha ([8]; post-emergence, Postemergence)
50%: pest or weed control at 31 g/ha ([5]; post-emergence, Postemergence) | pest or weed control at 125 g/ha ([10]; post-emergence, Postemergence)
25%: pest or weed control at 62 g/ha ([1]; post-emergence, Postemergence)
65%: pest or weed control at 16 g/ha ([3]; post-emergence, Postemergence) | pest or weed control at 16 g/ha ([7]; post-emergence, Postemergence) | pest or weed control at 16 g/ha ([7]; pre-emergence, Preemergence)
10%: pest or weed control at 31 g/ha [1, 12] | pest or weed control at 62 g/ha ([9]; post-emergence, Postemergence) | pest or weed control at 125 g/ha ([9]; post-emergence, Postemergence) | pest or weed control at 16 g/ha ([10]; post-emergence, Postemergence)
40%: pest or weed control at 125 g/ha ([1]; post-emergence, Postemergence) | pest or weed control at 62 g/ha ([10]; post-emergence, Postemergence)
80%: pest or weed control at 31 g/ha [2, 12] | pest or weed control at 125 g/ha ([5]; post-emergence, Postemergence) | pest or weed control at 62 g/ha ([6]; post-emergence, Postemergence) | pest or weed control at 125 g/ha ([6]; post-emergence, Postemergence) | pest or weed control at 16 g/ha ([8]; pre-emergence, Preemergence)
0%: pest or weed control at 16 g/ha ([5]; pre-emergence, Preemergence) | pest or weed control at 31 g/ha ([5]; pre-emergence, Preemergence) | pest or weed control at 62 g/ha ([5]; pre-emergence, Preemergence) | pest or weed control at 125 g/ha ([5]; pre-emergence, Preemergence) | pest or weed control at 31 g/ha ([9]; post-emergence, Postemergence) | pest or weed control at 16 g/ha ([10]; pre-emergence, Preemergence)
